Reference: patent US20100137368A1, “PYRIDINE DERIVATIVES AS FAST DI[…] 2 RECEPTOR ANTAGONISTS” (JANSSEN PHARMACEUTICA N.V., priority 2007, published 2010)
Where a name gives a salt, the structure may show the parent alone.

melting point [°C] | SMILES
129.5 | N#Cc1ccc(NC2CCN(Cc3cc(F)c(F)c(F)c3)CC2)nc1
268.7 | Fc1ccc(CN2CCC(Nc3ccc(C(F)(F)F)cn3)CC2)cc1F (as salt: hydrochloric acid salt)
115.2 | N#Cc1cccc(NC2CCN(Cc3cc(F)cc(C(F)(F)F)c3)CC2)n1
198.8 | N#Cc1ccc(NC2CCN(Cc3cc(F)cc(C(F)(F)F)c3)CC2)nc1
111.6 | N#Cc1ccc(NC2CCN(Cc3cccc(C(F)(F)F)c3)CC2)nc1
102.6 | N#Cc1ccc(NC2CCN(Cc3cc(F)cc(F)c3)CC2)nc1
